Test results from patent publication US7556938B1, “Nucleic acids encoding potassium channel interactors” (Millennium Pharmaceuticals, Inc., priority 1998, dated 2009).

Tests used:
Kv4.2/KChIP1 = biological target: T1, Kv4.2/KChIP1 (Rattus norvegicus, UniProt Q63881); experiment: AA modulation of Kv4.2/KChIP1 current in CHO cells; assay type: cell-based; details: Kv4.2/KChIP1, 10 μM AA
T1 construct: expressed in transfected cells; host or cells: CHO cells
T1 sequence (Q63881 1-630): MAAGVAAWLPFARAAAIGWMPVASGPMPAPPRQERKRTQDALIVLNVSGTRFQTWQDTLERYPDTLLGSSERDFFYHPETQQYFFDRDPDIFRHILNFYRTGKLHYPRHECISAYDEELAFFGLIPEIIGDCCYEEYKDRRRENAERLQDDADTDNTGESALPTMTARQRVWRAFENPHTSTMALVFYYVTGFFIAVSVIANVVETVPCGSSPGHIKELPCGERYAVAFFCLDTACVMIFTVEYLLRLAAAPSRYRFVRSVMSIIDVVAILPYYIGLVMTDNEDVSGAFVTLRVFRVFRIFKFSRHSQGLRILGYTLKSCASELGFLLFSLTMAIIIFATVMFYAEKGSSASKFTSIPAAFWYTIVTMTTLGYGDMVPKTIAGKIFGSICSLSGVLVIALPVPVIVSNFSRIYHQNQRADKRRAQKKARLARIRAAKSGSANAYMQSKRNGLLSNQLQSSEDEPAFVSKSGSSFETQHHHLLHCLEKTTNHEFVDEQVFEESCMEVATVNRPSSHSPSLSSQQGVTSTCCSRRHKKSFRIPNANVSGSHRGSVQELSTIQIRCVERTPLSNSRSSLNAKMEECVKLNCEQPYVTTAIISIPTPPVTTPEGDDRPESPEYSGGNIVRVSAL
T1 sequence (Q8R426 1-216 isoform Q8R426-2 partner): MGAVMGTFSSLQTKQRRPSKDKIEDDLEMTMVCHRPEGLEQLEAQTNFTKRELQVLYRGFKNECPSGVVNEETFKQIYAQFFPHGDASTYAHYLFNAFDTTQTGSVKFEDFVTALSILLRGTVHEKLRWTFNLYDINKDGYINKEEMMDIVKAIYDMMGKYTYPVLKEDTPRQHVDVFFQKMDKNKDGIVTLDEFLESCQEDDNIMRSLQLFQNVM
Experimental: (§1) HEK 293 and CHO cells were used for recordings 1-3 days after a transient transfection. Whole-cell currents were recorded from cells expressing GFP, identified by their green fluorescence. […] After Gigaseal and ruptured whole-cell configuration access, resistance was less than 10 MOhms. Whole-cell bath solutions were made from a 10× Hank's balanced salt solution (GibcoBRL) with the following final concentration (in mM): 138 NaCl, 5.4 KCl, 1.3 MgCl2, 1.3 CaCl2, 5.5 D-Glukos and 10 HEPES, pH 7.4. The intracellular electrode solution consisted of (in mM) 140 KCl, 10 HEPES, 10 EGTA, 0.5 MgCl2, pH 7.3. All chemicals were from Sigma (St. Louis, Mo.) or Fisher Scientific (Houston, Tex.). Membrane currents were recorded using a EPC9 patch-clamp amplifier (HEKA, Germany). Data were analyzed using Matlab (Natick, Ma), and leak subtracted if necessary. All experiments were done at room temperature. […]

Kv4.3 = experiment: Fatty acid modulation of Kv4.3 current (Kv4.3 alone) in Xenopus oocytes; assay type: cell-based, rat
Experimental: Frogs underwent no more than two surgeries and surgeries were performed by well established techniques. Frogs were anesthetized with ice. Total cRNA (1-10 ng) was injected into stage IV Xenopus oocytes that were harvested the previous day. The Xenopus oocytes were incubated in ND96 containing (in mM) 96 NaCl, 2 KCl, 1.8 CaCl2, 1 MgCl2, 5 HEPES, pH 7.6, plus (Gentamycin 50 μg/ml) at 18° C. Xenopus oocytes were studied 3-7 days after injection. The two-electrode voltage-clamp recordings were performed in ND96 solution using a TURBO TEC 03 Clamp Amplifier (ALA Scientific Instruments, Westbury, N.Y.). Both electrodes were filled with 3 M KCl and had electrode resistances ranging from 0.2-1 MOhm. The current signals were filtered at 1000 Hz before transferred on a PC (Gateway, Calif.) using the PULSE software (HEKA, Germany). In this Example, the hypothesis that […] were the missing auxiliary subunits that accounted for the above kinetic discrepancy was investigated by expressing Kv4 alone or together with […] in both CHO cells and Xenopus oocytes, and measuring their inactivation time constants (using art known techniques as described in, for example, An et al. (2000) Nature 403:553-6; Keros, S. and […]. Neuroscience 17: 3476-87; and Villarroel, A. and […]. Neuroscience 16:2522-32). The effects of different concentrations of arachidonic acid on Kv4/KChIP current was studied in Xenopus oocytes. Because the physiological concentrations of arachidonic acid are often under 10 μM (Needleman, et al., 1986 Annu Rev Biochem 55:69-102; Anderson and Welsh, 1990, Proc Natl Acad Sci USA 87:7334-8; Meves, 1994, Prog Neurobiol 43:175-86), arachidonic acid was tested in the 1-10 μM range. […] Further, the slope of amplitude reduction as a function of increasing concentrations was very similar with or without the presence of […]. […] Villarroel and Schwarz, (1996) J.

Kv4.2 = biological target: T2, Kv4.2 (Rattus norvegicus, UniProt Q63881); experiment: AA modulation of Kv4.2 current (Kv4.2 expressed alone) in CHO cells; assay type: cell-based; details: Kv4.2 alone, 10 μM AA
T2 construct: expressed in transfected cells; host or cells: CHO cells, transient transfection with GFP co-transfected
T2 sequence (Q63881 1-630): T1 sequence (Q63881 1-630)
Experimental: as §1

Peak amplitude (pA ± SEM) (Kv4.2/KChIP1): 2827 ± 496 pA
Inactivation time constant (ms ± SEM) (Kv4.2/KChIP1; listed as AA): 37 ± 3 ms
Peak amplitude (pA ± SEM) (Kv4.2): 336 ± 82 pA
Inactivation time constant (ms ± SEM) (Kv4.2; listed as AA): 32 ± 2 ms
Compound: CCCCC/C=C\C/C=C\C/C=C\C/C=C\CCCC(=O)O [arachidonic acid]
Inactivation time constant (ms ± SEM) (Kv4.3; Kv4.3 alone, 10 μM AA): 66 ± 6 ms
Peak amplitude (μA ± SEM) (Kv4.3; Kv4.3 alone, 10 μM AA): 13 ± 1 μA
block of Kv4.3 peak amplitude (Kv4.3; Kv4.3 alone, 10 μM fatty acid, vs no-fatty acid control): inhibited significantly
block of Kv4.3 peak amplitude (Kv4.3; Kv4.3 alone, 1-10 μM arachidonic acid): concentration-dependent block
effect on inactivation time constant (Kv4.3; absence of KChIP1, 1-10 μM arachidonic acid): unchanged at all arachidonic acid concentrations tested
